# Where two headings read alike, the source gives them in different places. Numbered stars: 1 amine (or outer) side, 2 acyl side, 3 side chain; on linkers, the order of the positions; unused ones are H or OH. Bridge positions count the residues as written; N and C are the ends. Square brackets hold non-standard residues; d marks the D form. Side chains are listed from the residue outwards. Peptide text beside a SMILES is read from it. * marks the point of attachment. DOTA = O=C(O)CN1CCN(CC(=O)O)CCN(CC(=O)*)CCN(CC(=O)O)CC1; Phe(4-CF3) = N[C@@H](Cc1ccc(C(F)(F)F)cc1)C(=O)O; Phe(3-CN) = N#Cc1cccc(C[C@H](N)C(=O)O)c1; Phe(4-Cl) = N[C@@H](Cc1ccc(Cl)cc1)C(=O)O; Phe(2-Cl) = N[C@@H](Cc1ccccc1Cl)C(=O)O; Phe(3-F) = N[C@@H](Cc1cccc(F)c1)C(=O)O; Arg(Me) = CNC(=N)NCCC[C@H](N)C(=O)O; X1 = O=C(CC1CCN([*:1])CC1)[*:2]; Lys(Me) = CNCCCC[C@H](N)C(=O)O; Thr(ol) = C[C@@H](O)[C@H](N)CO; NMeK = CN[C@@H](CCCCN)C(=O)O; Tle = CC(C)(C)[C@H](N)C(=O)O; Nle = CCCC[C@H](N)C(=O)O; Dap = NC[C@H](N)C(=O)O; Aib = CC(C)(N)C(=O)O; CO = O=C([*:1])[*:2]; Guanidino = N=C(N)N*
# Key:
# [1] = molecular target: T1, Fc-fusion protein of human PSMA (hPSMA-Fc) (Homo sapiens, UniProt Q04609); experiment: Surface plasmon resonance assay (Biacore T200, single cycle kinetic); format: binding; conditions: read-out: pKD CAT (converted)
# T1 construct: purchased Acro Biosystems PSA-H5264
# T1 sequence (Q04609 44-750 limits assumed): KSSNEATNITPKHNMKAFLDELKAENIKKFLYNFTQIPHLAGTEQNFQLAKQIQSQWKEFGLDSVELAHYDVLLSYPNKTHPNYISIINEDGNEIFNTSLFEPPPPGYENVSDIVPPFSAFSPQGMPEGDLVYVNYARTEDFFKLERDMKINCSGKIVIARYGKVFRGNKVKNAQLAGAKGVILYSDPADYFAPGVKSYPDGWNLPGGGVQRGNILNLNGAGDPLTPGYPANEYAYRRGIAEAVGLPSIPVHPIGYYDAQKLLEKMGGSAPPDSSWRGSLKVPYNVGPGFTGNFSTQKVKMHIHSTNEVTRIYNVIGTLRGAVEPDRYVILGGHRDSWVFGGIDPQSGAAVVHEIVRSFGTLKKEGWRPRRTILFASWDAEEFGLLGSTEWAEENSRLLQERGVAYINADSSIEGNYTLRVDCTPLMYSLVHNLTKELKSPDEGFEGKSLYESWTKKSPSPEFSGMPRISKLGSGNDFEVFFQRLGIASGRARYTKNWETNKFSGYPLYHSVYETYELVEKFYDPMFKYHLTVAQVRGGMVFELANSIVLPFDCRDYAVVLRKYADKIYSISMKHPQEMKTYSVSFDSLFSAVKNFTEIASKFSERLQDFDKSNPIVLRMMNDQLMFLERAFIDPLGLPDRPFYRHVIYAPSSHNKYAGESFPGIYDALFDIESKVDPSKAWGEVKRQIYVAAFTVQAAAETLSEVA
# Procedure, shortened: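 hPSMA-Fc was captured (~1000 RU) on an Fc-binding-peptide CM5 chip, and compounds were run in single cycle kinetic mode at 25° C in HBST with 0.1% DMSO. Double-blank-corrected sensorgrams were fitted to a 1:1 Langmuir model to give KD, reported as pKD.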
# [2] = molecular target: T2, PSMA-expressing C4-2 cells (Homo sapiens, UniProt Q04609); experiment: FACS binding assay (competition with 50 nM PSM-0183); conditions: C4-2 cells, read-out: pIC50 [C4-2] CAT (converted)
# T2 construct: PSMA-expressing C4-2 cells (ATCC, Cat. No. CRL-3314) were cultured in RPMI-1640; host or cells: C4-2 cells
# T2 sequence (Q04609 whole entry): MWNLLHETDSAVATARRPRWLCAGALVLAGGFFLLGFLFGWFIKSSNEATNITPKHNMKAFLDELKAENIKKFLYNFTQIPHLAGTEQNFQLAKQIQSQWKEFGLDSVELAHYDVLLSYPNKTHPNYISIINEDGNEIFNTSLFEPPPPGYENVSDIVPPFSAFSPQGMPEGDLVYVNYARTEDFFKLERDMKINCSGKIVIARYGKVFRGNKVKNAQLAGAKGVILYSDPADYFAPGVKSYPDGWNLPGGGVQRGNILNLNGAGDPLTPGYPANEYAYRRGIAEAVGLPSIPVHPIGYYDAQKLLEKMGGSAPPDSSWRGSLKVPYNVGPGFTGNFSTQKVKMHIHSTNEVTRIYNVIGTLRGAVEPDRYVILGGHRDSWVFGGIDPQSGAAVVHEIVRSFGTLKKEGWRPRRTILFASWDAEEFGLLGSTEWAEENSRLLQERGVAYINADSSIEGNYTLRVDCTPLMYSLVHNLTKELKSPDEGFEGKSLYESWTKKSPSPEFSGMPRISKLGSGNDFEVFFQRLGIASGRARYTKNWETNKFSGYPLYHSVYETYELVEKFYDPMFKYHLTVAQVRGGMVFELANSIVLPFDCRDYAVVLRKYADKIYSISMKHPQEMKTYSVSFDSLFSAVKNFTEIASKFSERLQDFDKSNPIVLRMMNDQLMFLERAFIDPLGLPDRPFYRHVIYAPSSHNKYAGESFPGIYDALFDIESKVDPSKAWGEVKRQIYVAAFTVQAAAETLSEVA
# Procedure, shortened: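 C4-2 cells were incubated 1 h at 4 °C with 50 nM AF488-labelled peptide PSM-0183 plus increasing test compound concentrations, then washed twice in ice-cold buffer. Median fluorescence in the AF488 channel was read by flow cytometry. IC50/pIC50 was derived by 4PL fitting of MFI versus concentration.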
# [3] = pKD category for PSMA SPR activity assay, hPSMA-Fc, 25° C.
SMILES,"Kd [1, 3] [µM]",IC50 ([2]; pIC50 category of FACS binding) [µM],"Kd ([1]; PSMA SPR assay, category) [µM]","IC50 ([2]; FACS binding, category) [µM]"
"CCCC[C@H](NC(=O)[C@@H]1CSSC[C@H](NC(=O)[C@H](Cc2ccccc2)NC(=O)[C@H](C)NC(=O)[C@@H](NC(C)=O)[C@@H](C)O)C(=O)N2CCC[C@H]2C(=O)N[C@@H](CCCNC(=N)N)C(=O)N[C@@H](C)C(=O)N[C@@H](CC(N)=O)C(=O)N1)C(=O)N[C@H](C(=O)N[C@@H](CC(=O)O)C(N)=O)[C@@H](C)O [PSM-0544, Ac-Thr-Als-Phe-[Cys-Pro-Arg-Ala-Asn-Cys]-Nle-Thr-Asp-NH2] (Ac-TAFCPRANC[Nle]TD-NH2; disulfide 4-9)",> 0.501,> 3.16,–,–
"CC(=O)N[C@H](C(=O)NC(C)(C)C(=O)N[C@@H](Cc1ccccc1)C(=O)N[C@H]1CSSC[C@@H](C(=O)N[C@H](C(=O)N[C@H](C(N)=O)[C@@H](C)O)C(C)(C)C)NC(=O)[C@H](CC(C)C)NC(=O)C(C)(C)NC(=O)[C@H](CCCNC(=N)N)NC(=O)[C@H](CCCCN)NC1=O)[C@@H](C)O [PSM-0545, Ac-Thr-Aib-Phe-[Cys-Lys-Arg-Aib-Leu-Cys]-Tle-Thr-NH2] (Ac-T[Aib]FCKR[Aib]LC[Tle]T-NH2; disulfide 4-9)",< 0.0126,< 0.2,–,–
"C[C@@H](O)[C@H](NC(=O)[C@@H](NC(=O)[C@@H]1CSSC[C@H](NC(=O)[C@H](Cc2ccc(Cl)cc2)NC(=O)C(C)(C)NC(=O)[C@@H](NC(=O)CC2CCN(C(=O)CN3CCN(CC(=O)O)CCN(CC(=O)O)CCN(CC(=O)O)CC3)CC2)[C@@H](C)O)C(=O)N[C@@H](CCCCN)C(=O)N[C@@H](CNC(=O)NC(=N)N)C(=O)NC(C)(C)C(=O)N[C@@H](CC(N)=O)C(=O)N1)C(C)(C)C)C(N)=O [PSM-0546, DOTA-Cmp-Thr-Aib-Pcf-[Cys-Lys-Urr-Aib-Asn-Cys]-Tle-Thr-NH2] ({DOTA}-[X1]T[Aib][Phe(4-Cl)]CK[Dap]([CO-Guanidino])[Aib]NC[Tle]T-NH2; disulfide 5-10)",< 0.0126,< 0.2,–,–
"CCCC[C@H](NC(=O)[C@@H]1CSSC[C@H](NC(=O)[C@H](Cc2ccccc2)NC(=O)[C@@H]2CCCN2C(=O)[C@@H](NC(C)=O)[C@@H](C)O)C(=O)N[C@@H](CCCCN)C(=O)N[C@@H](CCCNC(=N)N)C(=O)N[C@@H](C)C(=O)N[C@@H](CC(N)=O)C(=O)N1)C(=O)N[C@H](C(=O)N[C@@H](CC(=O)O)C(N)=O)[C@@H](C)O [PSM-0547, Ac-Thr-Pro-Phe-[Cys-Lys-Arg-Ala-Asn-Cys]-Nle-Thr-Asp-NH2] (Ac-TPFCKRANC[Nle]TD-NH2; disulfide 4-9)",0.0126 to 0.126,< 0.2,–,–
"C[C@@H](O)[C@H](NC(=O)[C@@H](NC(=O)[C@@H]1CSSC[C@H](NC(=O)[C@H](Cc2ccc(Cl)cc2)NC(=O)C(C)(C)NC(=O)[C@@H](NC(=O)CC2CCN(C(=O)CN3CCN(CC(=O)O)CCN(CC(=O)O)CCN(CC(=O)O)CC3)CC2)[C@@H](C)O)C(=O)N(C)[C@@H](CCCCN)C(=O)N[C@@H](CCCNC(=N)N)C(=O)NC(C)(C)C(=O)N[C@@H](CC(N)=O)C(=O)N1)C(C)(C)C)C(N)=O [PSM-0548, DOTA-Cmp-Thr-Aib-Pcf-[Cys-Nmk-Arg-Aib-Asn-Cys]-Tle-Thr-NH2] ({DOTA}-[X1]T[Aib][Phe(4-Cl)]C[NMeK]R[Aib]NC[Tle]T-NH2; disulfide 5-10)",0.0126 to 0.126,0.2 to 1.26,–,–
"CNCCCC[C@@H]1NC(=O)[C@@H](NC(=O)[C@H](Cc2ccc(C(F)(F)F)cc2)NC(=O)C(C)(C)NC(=O)[C@@H](NC(=O)CC2CCN(C(=O)CN3CCN(CC(=O)O)CCN(CC(=O)O)CCN(CC(=O)O)CC3)CC2)[C@@H](C)O)CSSC[C@@H](C(=O)N[C@H](C(N)=O)C(C)(C)C)NC(=O)[C@H](CC(N)=O)NC(=O)C(C)(C)NC(=O)[C@H](CCCNC(=N)NC)NC1=O [PSM-0549, DOTA-Cmp-Thr-Aib-Ptf-[Cys-Lys(Me)-Arg(Me)-Aib-Ass-Cys]-Tle-NH2] ({DOTA}-[X1]T[Aib][Phe(4-CF3)]C[Lys(Me)][Arg(Me)][Aib]NC[Tle]-NH2; disulfide 5-10)",0.0126 to 0.126,< 0.2,–,–
"CC(=O)N[C@H](C(=O)NC(C)(C)C(=O)N[C@@H](Cc1ccc(C(F)(F)F)cc1)C(=O)N[C@H]1CSSC[C@@H](C(=O)N[C@H](C(=O)N[C@H](C(N)=O)[C@@H](C)O)C(C)(C)C)NC(=O)[C@H](CC(N)=O)NC(=O)C(C)(C)NC(=O)[C@H](CCCNC(=N)N)NC(=O)[C@H](CCCCN)NC1=O)[C@@H](C)O [PSM-0550, Ac-Thr-Aib-Ptf-[Cys-Lys-Arg-Aib-Asn-Cys]-Tle-Thr-NH2] (Ac-T[Aib][Phe(4-CF3)]CKR[Aib]NC[Tle]T-NH2; disulfide 4-9)",< 0.0126,< 0.2,–,–
"CC(=O)N[C@H](C(=O)NC(C)(C)C(=O)N[C@@H](Cc1cccc(F)c1)C(=O)N[C@H]1CSSC[C@@H](C(=O)N[C@H](C(=O)N[C@H](C(N)=O)[C@@H](C)O)C(C)(C)C)NC(=O)[C@H](CC(N)=O)NC(=O)C(C)(C)NC(=O)[C@H](CCCNC(=N)N)NC(=O)[C@H](CCCCN)NC1=O)[C@@H](C)O [PSM-0551, Ac-Thr-Aib-Mff-[Cys-Lys-Arg-Aib-Asn-Cys]-Tle-Thr-NH2] (Ac-T[Aib][Phe(3-F)]CKR[Aib]NC[Tle]T-NH2; disulfide 4-9)",< 0.0126,< 0.2,–,–
"CC(=O)N[C@H](C(=O)NC(C)(C)C(=O)N[C@@H](Cc1ccccc1)C(=O)N[C@H]1CSSC[C@@H](C(=O)N[C@H](C(=O)N[C@H](C(N)=O)[C@@H](C)O)C(C)(C)C)NC(=O)[C@H](CC(N)=O)NC(=O)[C@H](C)NC(=O)[C@H](CCCNC(=N)N)NC(=O)[C@H](CCCCN)NC1=O)[C@@H](C)O [PSM-0552, Ac-Thr-Aib-Phe-[Cys-Lys-Arg-Ala-Asn-Cys]-Tle-Thr-NH2] (Ac-T[Aib]FCKRANC[Tle]T-NH2; disulfide 4-9)",< 0.0126,< 0.2,–,–
"CNCCCC[C@@H]1NC(=O)[C@@H](NC(=O)[C@H](Cc2cccc(F)c2)NC(=O)C(C)(C)NC(=O)[C@@H](NC(=O)CC2CCN(C(=O)CN3CCN(CC(=O)O)CCN(CC(=O)O)CCN(CC(=O)O)CC3)CC2)[C@@H](C)O)CSSC[C@@H](C(=O)N[C@H](C(N)=O)C(C)(C)C)NC(=O)[C@H](CC(N)=O)NC(=O)C(C)(C)NC(=O)[C@H](CCCNC(=N)NC)NC1=O [PSM-0553, DOTA-Cmp-Thr-Aib-Mff-[Cys-Lys(Me)-Arg(Me)-Aib-Asn-Cys]-Tle-NH2] ({DOTA}-[X1]T[Aib][Phe(3-F)]C[Lys(Me)][Arg(Me)][Aib]NC[Tle]-NH2; disulfide 5-10)",0.0126 to 0.126,< 0.2,–,–
"CC(=O)N[C@H](C(=O)NC(C)(C)C(=O)N[C@@H](Cc1ccc(Cl)cc1)C(=O)N[C@H]1CSSC[C@@H](C(=O)N[C@H](C(=O)N[C@H](CO)[C@@H](C)O)C(C)(C)C)NC(=O)[C@H](CC(N)=O)NC(=O)C(C)(C)NC(=O)[C@H](CCCNC(=N)N)NC(=O)[C@H](CCCCN)NC1=O)[C@@H](C)O [PSM-0554, Ac-Thr-Aib-Pcf-[Cys-Lys-Arg-Aib-Asn-Cys]-Tle-Throl-OH] (Ac-T[Aib][Phe(4-Cl)]CKR[Aib]NC[Tle][Thr(ol)]; disulfide 4-9)",< 0.0126,< 0.2,–,–
"CC(=O)N[C@H](C(=O)NC(C)(C)C(=O)N[C@@H](Cc1cccc(C#N)c1)C(=O)N[C@H]1CSSC[C@@H](C(=O)N[C@H](C(=O)N[C@H](C(N)=O)[C@@H](C)O)C(C)(C)C)NC(=O)[C@H](CC(N)=O)NC(=O)C(C)(C)NC(=O)[C@H](CCCNC(=N)N)NC(=O)[C@H](CCCCN)NC1=O)[C@@H](C)O [PSM-0555, Ac-Thr-Aib-Mnf-[Cys-Lys-Arg-Aib-Asn-Cys]-Tle-Thr-NH2] (Ac-T[Aib][Phe(3-CN)]CKR[Aib]NC[Tle]T-NH2; disulfide 4-9)",< 0.0126,< 0.2,–,–
"CC(=O)N[C@H](C(=O)NC(C)(C)C(=O)N[C@@H](Cc1ccccc1)C(=O)N[C@H]1CSSC[C@@H](C(=O)N[C@H](C(=O)N[C@@H](Cc2ccccc2)C(N)=O)C(C)(C)C)NC(=O)[C@H](CC(N)=O)NC(=O)C(C)(C)NC(=O)[C@H](CCCNC(=N)N)NC(=O)[C@H](CCCCN)NC1=O)[C@@H](C)O [PSM-0556, Ac-Thr-Aib-Phe-[Cys-Lys-Arg-Aib-Asn-Cys]-Tle-Phe-NH2] (Ac-T[Aib]FCKR[Aib]NC[Tle]F-NH2; disulfide 4-9)",< 0.0126,< 0.2,–,–
"CC(=O)N[C@H](C(=O)NC(C)(C)C(=O)N[C@@H](Cc1ccccc1Cl)C(=O)N[C@H]1CSSC[C@@H](C(=O)N[C@H](C(=O)N[C@H](C(=O)N[C@@H](CC(=O)O)C(N)=O)[C@@H](C)O)C(C)(C)C)NC(=O)[C@H](CC(N)=O)NC(=O)C(C)(C)NC(=O)[C@H](CCCNC(=N)N)NC(=O)[C@H](CCCCN)NC1=O)[C@@H](C)O [PSM-0558, Ac-Thr-Aib-Ocf-[Cys-Lys-Arg-Aib-Asn-Cys]-Tle-Thr-Asp-NH2] (Ac-T[Aib][Phe(2-Cl)]CKR[Aib]NC[Tle]TD-NH2; disulfide 4-9)",0.0126 to 0.126,< 0.2,–,–
"CC(=O)NC(C)(C)C(=O)N[C@@H](Cc1ccc(Cl)cc1)C(=O)N[C@H]1CSSC[C@@H](C(=O)N[C@H](C(=O)N[C@H](C(N)=O)[C@@H](C)O)C(C)(C)C)NC(=O)[C@H](CC(N)=O)NC(=O)C(C)(C)NC(=O)[C@H](CCCNC(=N)N)NC(=O)[C@H](CCCCN)NC1=O [PSM-0559, Ac-Aib-Pcf-[Cys-Lys-Arg-Aib-Asn-Cys]-Tle-Thr-NH2] (Ac-[Aib][Phe(4-Cl)]CKR[Aib]NC[Tle]T-NH2; disulfide 3-8)",–,–,< 0.0126,< 0.2

# Source: US20260083865A1, “PROSTATE SPECIFIC MEMBRANE ANTIGEN (PSMA) LIGANDS AND USE THEREOF” (priority 2022, published 2026)
